Test results from ChEMBL document CHEMBL5241125, “Overcoming intrinsic resistance in gram-negative bacteria using small molecule adjuvants” (Bioorg Med Chem Lett, 2023).
Where a SMILES comes first, the peptide text is derived from it. Bridges are numbered along the chain shown (N, C = ends). [ ]: non-standard residue; d: D form. Dab = NCC[C@H](N)C(=O)O

What was measured:
[1] = system: Acinetobacter baumannii; test: Antibacterial adjuvant activity against Acinetobacter baumannii AB5075 assessed as decrease in clarithromycin MIC at 30 uM incubated for 16 hrs in presence of clarithromycin by broth microdilution method; type: functional
[2] = system: Acinetobacter baumannii; test: Antibacterial adjuvant activity against Acinetobacter baumannii AB5075 assessed as decrease in clarithromycin MIC at 10 uM incubated for 16 hrs in presence of clarithromycin by broth microdilution method; type: functional
[3] = system: Acinetobacter baumannii; test: Antibacterial adjuvant activity against Acinetobacter baumannii AB5075 assessed as decrease in vancomycin MIC at 30 uM incubated for 16 hrs in presence of vancomycin by broth microdilution method; type: functional
[4] = system: Escherichia coli; test: Antibacterial activity against Escherichia coli IH3080 assessed as reduction in bacterial growth by measuring fold change incubated for 18 hrs by spectrophotometry; type: functional
[5] = system: Salmonella typhimurium; test: Antibacterial activity against Salmonella typhimurium SH5014 assessed as reduction in bacterial growth by measuring fold change incubated for 18 hrs by spectrophotometry; type: functional, Salmonella enterica subsp. enterica serovar Typhimurium
[6] = system: Escherichia coli; test: Antibacterial activity against Escherichia coli IH3080 assessed as reduction in bacterial growth by measuring fold change at 3 ug/ml incubated for 18 hrs by spectrophotometry; type: functional; conditions: dose 3 µg/ml
[7] = system: Salmonella typhimurium; test: Antibacterial activity against Salmonella typhimurium SH5014 assessed as reduction in bacterial growth by measuring fold change at 3 ug/ml incubated for 18 hrs by spectrophotometry; type: functional, Salmonella enterica subsp. enterica serovar Typhimurium; conditions: dose 3 µg/ml
[8] = system: Pseudomonas aeruginosa; test: Antibacterial adjuvant activity against Pseudomonas aeruginosa PAO1 assessed as decrease in azithromycin MIC at 60 uM incubated for 16 hrs in presence of azithromycin by broth microdilution method; type: functional
[9] = system: Pseudomonas aeruginosa; test: Antibacterial adjuvant activity against Pseudomonas aeruginosa PAO1 assessed as decrease in azithromycin MIC at 40 uM incubated for 16 hrs in presence of azithromycin by broth microdilution method; type: functional
[10] = system: Acinetobacter baumannii; test: Synergistic antibacterial activity against colistin-sensitive Acinetobacter baumannii ATCC 17978 infected in C57BL/6 mouse assessed as increase in survival rate at 5 mg/kg,po administered in presence of pentamidine for 7 days; type: functional; conditions: ATCC 17978, 168 h, time 7 day
[11] = system: Acinetobacter baumannii; test: Synergistic antibacterial activity against colistin-resistant Acinetobacter baumannii ATCC 17978 infected in C57BL/6 mouse assessed as increase in survival rate at 50 mg/kg,po administered in presence of pentamidine for 7 days; type: functional; conditions: ATCC 17978, 168 h, time 7 day
[12] = system: Acinetobacter baumannii; test: Synergistic antibacterial activity against colistin-sensitive Acinetobacter baumannii ATCC 17978 infected in C57BL/6 mouse assessed as increase in survival rate at 10 mg/kg,po administered in presence of novobiocin for 7 days; type: functional; conditions: ATCC 17978, 168 h, time 7 day
[13] = Binding affinity to Escherichia coli Lipid A assessed as dissociation constant
[14] = system: Acinetobacter baumannii; test: Synergistic antibacterial activity against colistin-resistant Acinetobacter baumannii ATCC 17978 infected in C57BL/6 mouse assessed as increase in survival rate at 10 mg/kg,po administered in presence of novobiocin for 7 days; type: functional; conditions: ATCC 17978, 168 h, time 7 day
[15] = system: Acinetobacter baumannii; test: Synergistic antibacterial activity against Acinetobacter baumannii infected in mouse assessed as increase in survival rate at 5 mg/kg,po administered bid in presence of SPR741 for 3 days; type: functional; conditions: 72 h, time 3 day
[16] = system: Acinetobacter baumannii; test: Synergistic antibacterial activity against Acinetobacter baumannii infected in mouse assessed as reduction of bacterial burden in lung at 5 mg/kg,po administered bid in presence of SPR741 for 3 days; type: functional; conditions: time 3 day
[17] = system: Acinetobacter baumannii; test: Antibacterial activity against Acinetobacter baumannii infected in mouse assessed as increase in survival rate at 5 mg/kg,po administered bid for 3 days; type: functional; conditions: 72 h, time 3 day
[18] = system: Acinetobacter baumannii; test: Antibacterial activity against Acinetobacter baumannii infected in mouse assessed as reduction of bacterial burden in lung at 5 mg/kg,po administered bid for 3 days; type: functional; conditions: time 3 day
[19] = system: Acinetobacter baumannii; test: Synergistic antibacterial activity against Acinetobacter baumannii infected in mouse assessed as increase in survival rate at 60 mg/kg,po administered bid in presence of rifampin for 3 days; type: functional; conditions: 72 h, time 3 day
[20] = system: Acinetobacter baumannii; test: Synergistic antibacterial activity against Acinetobacter baumannii infected in mouse assessed as reduction of bacterial burden in lung at 60 mg/kg,po administered bid in presence of rifampin for 3 days; type: functional; conditions: time 3 day

Nc1nc(-c2ccc(NC(=O)c3cc(Cl)cc(Cl)c3)cc2)c[nH]1
MIC [1]: 0.25 µg/mL
MIC [2]: 2 µg/mL
MIC [3]: 1 µg/mL

Nc1ncc(-c2ccc(NC(=O)c3cc(Br)cc(Br)c3)cc2)[nH]1
MIC [1]: 0.25 µg/mL
MIC [2]: 2 µg/mL
MIC [3]: 1 µg/mL

CC(C)C[C@@H]1NC(=O)[C@@H](Cc2ccccc2)NC(=O)[C@H](CCN)NC(=O)[C@@H](NC(=O)[C@H](CCN)NC(=O)[C@@H](NC(=O)[C@@H](N)CCN)[C@H](C)O)CCNC(=O)[C@H]([C@@H](C)O)NC(=O)[C@H](CCN)NC(=O)[C@H](CCN)NC1=O
fold change (FC) [4]: 300
fold change (FC) [5]: 300

CC(C)C[C@@H]1NC(=O)[C@@H](Cc2ccccc2)NC(=O)[C@H](CCN)NC(=O)[C@@H](NC(=O)[C@H](CCN)NC(=O)[C@@H](N)[C@H](C)O)CCNC(=O)[C@H]([C@@H](C)O)NC(=O)[C@H](CCN)NC(=O)[C@H](CCN)NC1=O
fold change (FC) [6]: 10
fold change (FC) [7]: 10

NCCCC(c1c[nH]c(N)n1)c1cnc(N)[nH]1
MIC [8]: 0.25 µg/mL
MIC [9]: 1 µg/mL

CC(C)C[C@@H]1NC(=O)[C@@H](CC(C)C)NC(=O)[C@H](CCN)NC(=O)[C@@H](NC(=O)[C@H](CCN)NC(=O)[C@@H](NC(=O)[C@@H](N)CCN)[C@H](C)O)CCNC(=O)[C@H]([C@@H](C)O)NC(=O)[C@H](CCN)NC(=O)[C@H](CCN)NC1=O
fold change (FC) [4]: 300
fold change (FC) [5]: 300

CO[C@@H]1[C@@H](OC(N)=O)[C@@H](O)[C@H](Oc2ccc3c(O)c(NC(=O)c4ccc(O)c(CC=C(C)C)c4)c(=O)oc3c2C)OC1(C)C [NOVOBIOCIN]
survival at 5 mg/kg [10]: 100%
survival at 50 mg/kg [11]: 90%

N=C(N)c1ccc(OCCCCCOc2ccc(C(=N)N)cc2)cc1 [PENTAMIDINE]
survival at 10 mg/kg [12]: 100%
Kd [13]: 120 nM
survival at 10 mg/kg [14]: 90%

CO[C@H]1/C=C/O[C@@]2(C)Oc3c(C)c(O)c4c(O)c(c(/C=N/N5CCN(C)CC5)c(O)c4c3C2=O)NC(=O)/C(C)=C\C=C\[C@H](C)[C@H](O)[C@@H](C)[C@@H](O)[C@@H](C)[C@H](OC(C)=O)[C@@H]1C [RIFAMPIN]
survival at 5 mg/kg [15]: 90%
Activity [16]: 6 log10CFU/g
survival at 5 mg/kg [17]: 50%
Activity [18]: 2 log10CFU/g

CC(=O)N[C@H](C(=O)N[C@H](CO)C(=O)N[C@H]1CCNC(=O)[C@H]([C@@H](C)O)NC(=O)[C@H](CCN)NC(=O)[C@H](CCN)NC(=O)[C@H](CC(C)C)NC(=O)[C@@H](Cc2ccccc2)NC(=O)[C@H](CCN)NC1=O)[C@@H](C)O [SPR-741] (Ac-T[dS][Dab][Dab][dF]L[Dab][Dab]T; lactam 3-C)
survival at 60 mg/kg [19]: 90%
Activity [20]: 6 log10CFU/g
